Tests used:
[1] = Cytotoxicity against HEK293T cells assessed as inhibition of cell growth at 100 uM incubated for 24 hrs by CCK8 method relative to control; assay type: toxicity, cell-based, HEK-293T; conditions: human
Klebsiella pneumoniae [2] = experiment: Antibacterial activity against Klebsiella pneumoniae 15-1 assessed as inhibition of bacterial growth measured after 18 to 20 hrs by broth microdilution method; assay type: functional; conditions: time 18-20 hrs
Pseudomonas aeruginosa [3] = experiment: Antibacterial activity against Pseudomonas aeruginosa 17-1 assessed as inhibition of bacterial growth measured after 18 to 20 hrs by broth microdilution method; assay type: functional; conditions: time 18-20 hrs
[4] = Cytotoxicity against HEK293T cells assessed as inhibition of cell growth incubated for 24 hrs by CCK8 method; assay type: toxicity, cell-based, HEK-293T; conditions: human
Escherichia coli [5] = experiment: Antibacterial activity against Escherichia coli 14-2 assessed as inhibition of bacterial growth measured after 18 to 20 hrs by broth microdilution method; assay type: functional; conditions: time 18-20 hrs
HepG2 [6] = experiment: Cytotoxicity against human HepG2 cells assessed as inhibition of cell growth at 100 uM incubated for 24 hrs by CCK8 method relative to control; assay type: functional
Acinetobacter baumannii [7] = experiment: Antibacterial activity against Acinetobacter baumannii 17-2 assessed as inhibition of bacterial growth measured after 18 to 20 hrs by broth microdilution method; assay type: functional; conditions: time 18-20 hrs
Jurkat [8] = experiment: Cytotoxicity against human Jurkat cells assessed as inhibition of cell growth at 100 uM incubated for 24 hrs by CCK8 method relative to control; assay type: functional
Escherichia coli [9] = experiment: Antibacterial activity against Escherichia coli 14-4 assessed as inhibition of bacterial growth measured after 18 to 20 hrs by broth microdilution method; assay type: functional; conditions: time 18-20 hrs
Klebsiella pneumoniae [10] = experiment: Antibacterial activity against Klebsiella pneumoniae 15-5 assessed as inhibition of bacterial growth measured after 18 to 20 hrs by broth microdilution method; assay type: functional; conditions: time 18-20 hrs
Acinetobacter baumannii [11] = experiment: Antibacterial activity against Acinetobacter baumannii 17-8 assessed as inhibition of bacterial growth measured after 18 to 20 hrs by broth microdilution method; assay type: functional; conditions: time 18-20 hrs
Escherichia coli [12] = experiment: Antibacterial activity against Escherichia coli ATCC 35218 assessed as inhibition of bacterial growth measured after 18 to 20 hrs by broth microdilution method; assay type: functional; conditions: time 18-20 hrs
Pseudomonas aeruginosa [13] = experiment: Antibacterial activity against Pseudomonas aeruginosa 19-5 assessed as inhibition of bacterial growth measured after 18 to 20 hrs by broth microdilution method; assay type: functional; conditions: time 18-20 hrs
Jurkat [14] = experiment: Cytotoxicity against human Jurkat cells assessed as inhibition of cell growth incubated for 24 hrs by CCK8 method; assay type: functional, cell-based
Klebsiella pneumoniae [15] = experiment: Antibacterial activity against Klebsiella pneumoniae 15-4 assessed as inhibition of bacterial growth measured after 18 to 20 hrs by broth microdilution method; assay type: functional; conditions: time 18-20 hrs
HepG2 [16] = experiment: Cytotoxicity against human HepG2 cells assessed as inhibition of cell growth incubated for 24 hrs by CCK8 method; assay type: functional, cell-based; conditions: HepG2, 24 h

Row | MIC (Klebsiella pneumoniae [2]) | MIC (Pseudomonas aeruginosa [3]) | MIC (Escherichia coli [5]) | MIC (Acinetobacter baumannii [7]) | MIC (Escherichia coli [9]) | MIC (Klebsiella pneumoniae [10]) | MIC (Acinetobacter baumannii [11]) | MIC (Escherichia coli [12]) | MIC (Pseudomonas aeruginosa [13]) | MIC (Klebsiella pneumoniae [15]) | SMILES | inhibition at 24 h, 100 µM [1] | IC50 at 24 h [4] | inhibition at 100 µM (HepG2 [6]) | inhibition at 100 µM (Jurkat [8]) | IC50 (Jurkat [14]) | IC50 (HepG2 [16])
1 | ≤ 0.03 µg/mL | 4 µg/mL | ≤ 0.03 µg/mL | 0.25 µg/mL | ≤ 0.03 µg/mL | ≤ 0.03 µg/mL | 0.5 µg/mL | ≤ 0.03 µg/mL | 4 µg/mL | ≤ 0.03 µg/mL | Cc1nc(-c2ccc(SSC(C)(C)C)cc2)ncc1C(=O)N[C@@H](CCN)C(=O)N(C)[C@@H]1C(=O)N[C@@H](C)C(=O)N[C@H](C(=O)NCC#N)Cc2ccc(OCCN)c(c2)-c2cc1ccc2OCCN.O=C(O)C(F)(F)F.O=C(O)C(F)(F)F.O=C(O)C(F)(F)F.O=C(O)C(F)(F)F | 51.5% | > 100 µM | -1.65% | 38.2% | > 100 µM | > 100 µM
2 | ≤ 0.03 µg/mL | 4 µg/mL | ≤ 0.03 µg/mL | 0.25 µg/mL | ≤ 0.03 µg/mL | ≤ 0.03 µg/mL | 0.125 µg/mL | ≤ 0.03 µg/mL | 8 µg/mL | 0.06 µg/mL | CCCSSCc1ccc(-c2ncc(C(=O)N[C@@H](CCN)C(=O)N(C)[C@@H]3C(=O)N[C@@H](C)C(=O)N[C@H](C(=O)NCC#N)Cc4ccc(OCCN)c(c4)-c4cc3ccc4OCCN)c(C)n2)cc1.O=C(O)C(F)(F)F.O=C(O)C(F)(F)F.O=C(O)C(F)(F)F.O=C(O)C(F)(F)F | 29.9% | > 100 µM | -3.61% | 32.5% | > 100 µM | > 100 µM
3 | ≤ 0.03 µg/mL | 4 µg/mL | ≤ 0.03 µg/mL | 0.25 µg/mL | ≤ 0.03 µg/mL | ≤ 0.03 µg/mL | 0.5 µg/mL | ≤ 0.03 µg/mL | 32 µg/mL | ≤ 0.03 µg/mL | Cc1nc(-c2ccc(CSSC(C)(C)C)cc2)ncc1C(=O)N[C@@H](CCN)C(=O)N(C)[C@@H]1C(=O)N[C@@H](C)C(=O)N[C@H](C(=O)O)Cc2ccc(OCCN)c(c2)-c2cc1ccc2OCCN.O=C(O)C(F)(F)F.O=C(O)C(F)(F)F.O=C(O)C(F)(F)F.O=C(O)C(F)(F)F | 36.6% | > 100 µM | -0.02% | 27.7% | > 100 µM | > 100 µM
4 | 0.125 µg/mL | 4 µg/mL | 0.125 µg/mL | 1 µg/mL | ≤ 0.03 µg/mL | 0.06 µg/mL | 0.25 µg/mL | ≤ 0.03 µg/mL | 4 µg/mL | 0.06 µg/mL | Cc1nc(-c2ccc(CSSC3CCCC3)cc2)ncc1C(=O)N[C@@H](CCN)C(=O)N(C)[C@@H]1C(=O)N[C@@H](C)C(=O)N[C@H](C(=O)NCC#N)Cc2ccc(OCCN)c(c2)-c2cc1ccc2OCCN.O=C(O)C(F)(F)F.O=C(O)C(F)(F)F.O=C(O)C(F)(F)F.O=C(O)C(F)(F)F | 42.6% | > 100 µM | 3.22% | 35.4% | > 100 µM | > 100 µM
5 | ≤ 0.03 µg/mL | 8 µg/mL | ≤ 0.03 µg/mL | 1 µg/mL | ≤ 0.03 µg/mL | ≤ 0.03 µg/mL | 0.25 µg/mL | ≤ 0.03 µg/mL | 8 µg/mL | ≤ 0.03 µg/mL | CSSC(C)(C)c1ccc(-c2ncc(C(=O)N[C@@H](CCN)C(=O)N(C)[C@@H]3C(=O)N[C@@H](C)C(=O)N[C@H](C(=O)NCC#N)Cc4ccc(OCCN)c(c4)-c4cc3ccc4OCCN)c(C)n2)cc1.O=C(O)C(F)(F)F.O=C(O)C(F)(F)F.O=C(O)C(F)(F)F.O=C(O)C(F)(F)F | 48.1% | > 100 µM | -12.6% | 39.1% | > 100 µM | > 100 µM
6 | ≤ 0.03 µg/mL | 8 µg/mL | ≤ 0.03 µg/mL | 0.5 µg/mL | ≤ 0.03 µg/mL | ≤ 0.03 µg/mL | 0.125 µg/mL | ≤ 0.03 µg/mL | 8 µg/mL | ≤ 0.03 µg/mL | CCCCSSCc1ccc(-c2ncc(C(=O)N[C@@H](CCN)C(=O)N(C)[C@@H]3C(=O)N[C@@H](C)C(=O)N[C@H](C(=O)NCC#N)Cc4ccc(OCCN)c(c4)-c4cc3ccc4OCCN)c(C)n2)cc1.O=C(O)C(F)(F)F.O=C(O)C(F)(F)F.O=C(O)C(F)(F)F.O=C(O)C(F)(F)F | 41% | > 100 µM | -3.33% | 50.6% | > 100 µM | > 100 µM
7 | 0.125 µg/mL | 8 µg/mL | 0.125 µg/mL | 1 µg/mL | 0.125 µg/mL | 0.25 µg/mL | 0.5 µg/mL | ≤ 0.03 µg/mL | 4 µg/mL | 0.25 µg/mL | Cc1nc(-c2ccc(CSSC3CCC3)cc2)ncc1C(=O)N[C@@H](CCN)C(=O)N(C)[C@@H]1C(=O)N[C@@H](C)C(=O)N[C@H](C(=O)NCC#N)Cc2ccc(OCCN)c(c2)-c2cc1ccc2OCCN.O=C(O)C(F)(F)F.O=C(O)C(F)(F)F.O=C(O)C(F)(F)F.O=C(O)C(F)(F)F |  |  |  |  |  | 
8 | 0.06 µg/mL | 2 µg/mL | 0.06 µg/mL | 0.5 µg/mL | 0.06 µg/mL | 0.06 µg/mL | 0.125 µg/mL | ≤ 0.03 µg/mL | 4 µg/mL | 0.125 µg/mL | Cc1nc(-c2ccc(CSSC(C)C)cc2)ncc1C(=O)N[C@@H](CCN)C(=O)N(C)[C@@H]1C(=O)N[C@@H](C)C(=O)N[C@H](C(=O)NCC#N)Cc2ccc(OCCN)c(c2)-c2cc1ccc2OCCN.O=C(O)C(F)(F)F.O=C(O)C(F)(F)F.O=C(O)C(F)(F)F.O=C(O)C(F)(F)F |  |  |  |  |  | 

Further lines, the molecule ahead of its results:

Row | SMILES | MIC (Klebsiella pneumoniae [2]) | MIC (Pseudomonas aeruginosa [3]) | MIC (Escherichia coli [5]) | MIC (Acinetobacter baumannii [7]) | MIC (Escherichia coli [9]) | MIC (Klebsiella pneumoniae [10]) | MIC (Acinetobacter baumannii [11]) | MIC (Escherichia coli [12]) | MIC (Pseudomonas aeruginosa [13]) | MIC (Klebsiella pneumoniae [15]) | inhibition at 24 h, 100 µM [1] | IC50 at 24 h [4] | inhibition at 100 µM (HepG2 [6]) | inhibition at 100 µM (Jurkat [8]) | IC50 (Jurkat [14]) | IC50 (HepG2 [16])
9 | Cc1nc(-c2ccc(CSSC(C)(C)C)cc2)ncc1C(=O)N[C@@H](CCN)C(=O)N(C)[C@@H]1C(=O)N[C@@H](C)C(=O)N[C@H](C(=O)NCC#N)Cc2ccc(OCCN)c(c2)-c2cc1ccc2OCCN.O=C(O)C(F)(F)F.O=C(O)C(F)(F)F.O=C(O)C(F)(F)F.O=C(O)C(F)(F)F | ≤ 0.03 µg/mL | 4 µg/mL | ≤ 0.03 µg/mL | 0.125 µg/mL | ≤ 0.03 µg/mL | ≤ 0.03 µg/mL | 0.125 µg/mL | ≤ 0.03 µg/mL | 4 µg/mL | ≤ 0.03 µg/mL | 43% | > 100 µM | 28.4% | 34.6% | > 100 µM | > 100 µM
10 | Cc1cc(-c2ccc(CSSC(C)(C)C)cc2)ncc1C(=O)N[C@@H](CCN)C(=O)N(C)[C@@H]1C(=O)N[C@@H](C)C(=O)N[C@H](C(=O)NCC#N)Cc2ccc(OCCN)c(c2)-c2cc1ccc2OCCN.O=C(O)C(F)(F)F.O=C(O)C(F)(F)F.O=C(O)C(F)(F)F.O=C(O)C(F)(F)F | 0.125 µg/mL | 8 µg/mL | 0.25 µg/mL | 1 µg/mL | 0.125 µg/mL | 0.25 µg/mL | 1 µg/mL | ≤ 0.03 µg/mL | 6 µg/mL | 0.5 µg/mL |  |  |  |  |  | 
11 | Cc1nc(-c2ccc(C(C)(C)C)cc2)ncc1NC(=O)N[C@@H](CCN)C(=O)N(C)[C@@H]1C(=O)N[C@@H](C)C(=O)N[C@H](C(=O)NCC#N)Cc2ccc(OCCN)c(c2)-c2cc1ccc2OCCN.O=C(O)C(F)(F)F.O=C(O)C(F)(F)F.O=C(O)C(F)(F)F.O=C(O)C(F)(F)F | 16 µg/mL | > 64 µg/mL | 16 µg/mL | 32 µg/mL | 8 µg/mL | 16 µg/mL | 8 µg/mL | 4 µg/mL | > 64 µg/mL | 32 µg/mL |  |  |  |  |  | 
12 | CCCCCSSc1ccc(-c2ncc(C(=O)N[C@@H](CCN)C(=O)N(C)[C@@H]3C(=O)N[C@@H](C)C(=O)N[C@H](C(=O)NCC#N)Cc4ccc(OCCN)c(c4)-c4cc3ccc4OCCN)c(C)n2)cc1.O=C(O)C(F)(F)F.O=C(O)C(F)(F)F.O=C(O)C(F)(F)F.O=C(O)C(F)(F)F | 1 µg/mL | 4 µg/mL | 0.25 µg/mL | 2 µg/mL | 0.25 µg/mL | 0.5 µg/mL | 1 µg/mL | 0.5 µg/mL | 4 µg/mL | 0.5 µg/mL |  |  |  |  |  | 
13 | Cc1nc(-c2ccc(C3SCCS3)cc2)ncc1C(=O)N[C@@H](CCN)C(=O)N(C)[C@@H]1C(=O)N[C@@H](C)C(=O)N[C@H](C(=O)NCC#N)Cc2ccc(OCCN)c(c2)-c2cc1ccc2OCCN.O=C(O)C(F)(F)F.O=C(O)C(F)(F)F.O=C(O)C(F)(F)F.O=C(O)C(F)(F)F | 0.25 µg/mL | 32 µg/mL | 0.125 µg/mL | 8 µg/mL | 0.125 µg/mL | 0.25 µg/mL | 2 µg/mL | 0.06 µg/mL | 64 µg/mL | 1 µg/mL |  |  |  |  |  | 
14 | Cc1nc(-c2ccc(C(C)(C)C)cc2)ncc1C(=O)N[C@@H](CCN)C(=O)N(C)[C@@H]1C(=O)N[C@@H](C)C(=O)N[C@H](C(=O)NCP(=O)(O)O)Cc2ccc(OCCN)c(c2)-c2cc1ccc2OCCN.Cl.Cl.Cl.Cl | 0.5 µg/mL | 64 µg/mL | 1 µg/mL | 8 µg/mL | 0.25 µg/mL | 0.25 µg/mL | 4 µg/mL | 0.25 µg/mL | 64 µg/mL | 0.5 µg/mL |  |  |  |  |  | 

— ChEMBL document CHEMBL5518248, “Design, Synthesis, and Biological Evaluation of Novel Arylomycins against Multidrug-Resistant Gram-Negative Bacteria” (J Med Chem, 2024)
